Data published in patent US10611748B2, “Xanthone derivatives for the treatment of hepatitis B virus disease” (Hoffmann-La Roche Inc., priority 2017, dated 2020).

Legend:
[1] = test system: extracellular HBsAg level in HBV-infected PHH; assay: Cryopreserved primary human hepatocytes (PHH) assay, HBsAg; assay type: cell-based; settings: Hepatitis B virus, Hepatocyte, 216 h, read-out: HBsAg IC50
Protocol: (§1) Cryopreserved PHH (BioreclamationIVT, Lot YJM) was thawed at 37° C. and gently transferred into pre-warmed InVitroGRO HT medium (BioreclamationIVT, Cat. S03317). The mixture was centrifuged at 70 relative centrifugal force (RCF) for 3 minutes at RT, and the supernatant was discarded. Pre-warmed InVitroGRO CP medium (BioreclamationIVT, Cat # S03316) was added to the cell pellet to gently re-suspend cells. The cells were seeded at the density of 5.8×10^4 cells per well to collagen I coated 96-well plate (Gibco, Cat. A1142803) with the InVitroGRO CP medium. All plates were incubated at 37° C. with 5% CO2 and 85% humidity.
(§2) At 20 hours after plating, the medium was changed to PHH culture medium (Dulbecco's Modified Eagle Medium (DMEM)/F12 (1:1) (Gibco, Cat. 11320-033), 10% fetal bovine serum (Gibco Cat. 10099141), 100 U/mL penicillin, 100 μg/mL streptomycin (Gibco, Cat. 151401-122), 5 ng/mL human epidermal growth factor (Invitrogen Cat. PHG0311L), 20 ng/mL dexamethasone (Sigma, Cat. D4902) and 250 ng/mL human recombinant insulin (Gibco, Cat. 12585-014)). And the cells were incubated at 37° C. with 5% CO2 and 85% humidity for 4 hours. The medium was then changed to pre-warmed PHH culture medium containing 4% polyethylene glycol (PEG) MW8000 (Sigma, Cat. P1458-50ML) and 1% DMSO (Sigma, Cat. D2650). 5.8×10^6 genomic equivalents of HBV were added into the medium.
(§3) At 24 hours post-infection, the cells were gently washed with PBS and refreshed with PHH culture medium supplemented with 1% DMSO, and 0.25 mg/mL Matrix gel (Corning, Cat. 356237) at 200 μL per well. All plates were immediately placed in at 37° C. CO2 incubator.
(§4) 24 hours later, serial dilutions of compounds made with DMSO were further diluted with the same culture medium (PHH culture medium supplemented with 1% DMSO and 0.25 mg/mL Matrix gel as described above) before they were added to the cells to reach desired final compound concentrations and 1% DMSO concentration. The medium containing the compounds were refreshed every three days.
(§5) At 9 days post-compound treatment, extracellular HBsAg level were measured with Chemiluminescence Immuno Assay (CLIA) kit (Autobio, HBsAg Quantitative CLIA). Extracellular HBV DNA was extracted by MagNA Pure 96 system (Roche) and then determined by quantitative PCR with the following primers and probe: HBV-Forward Primer (SEQ ID NO:2): […] (5′ to 3′); HBV-Reverse Primer (SEQ ID NO:3): […](5′ to 3′); HBV-Probe: 5′+tetramethylrhodamine+SEQ ID NO:4+black hole quencher 2-3′, wherein SEQ ID NO:4 is […].
(§6) HBsAg IC50 and HBV DNA IC50 values were derived from the dose-response curve using 4 parameter logistic curve fit method.

[2] = test system: extracellular HBV DNA in HBV-infected PHH; assay: Cryopreserved primary human hepatocytes (PHH) assay, HBV DNA; assay type: cell-based; settings: Hepatitis B virus, Hepatocyte, 216 h; cryopreserved PHH infected with HBV, 9 days post-compound treatment, quantitative PCR
Protocol: as §1, §2, §3, §4, §5, §6

`O=C(O)C1CCN(c2ccc3c(=O)c4c(Cl)ccc(Cl)c4oc3c2)C1` (stereo not drawn) [Example 26, 1-(5,8-dichloro-9-oxo-xanthen-3-yl)pyrrolidine-3-carboxylic Acid] gave an IC50 [1] of 1170 nM.
`O=C(O)C1CCN(c2ccc3c(=O)c4cccc(Cl)c4oc3c2)C1` (stereo not drawn) [Example 2, 1-(5-chloro-9-oxo-xanthen-3-yl)pyrrolidine-3-carboxylic acid] gave an IC50 [1] of 1330 nM and an IC50 [2] of 2300 nM.
`O=C(O)C1CCN(c2ccc3c(=O)c4cccc(F)c4oc3c2)C1` (stereo not drawn) [Example 5, 1-(5-fluoro-9-oxo-xanthen-3-yl)pyrrolidine-3-carboxylic acid] gave an IC50 [1] of 17800 nM and an IC50 [2] of 9620 nM.
In the case of `O=C(O)[C@@H]1CCN(c2ccc3c(=O)c4cccc(Cl)c4oc3c2)C1` [Example 3, (3R)-1-(5-chloro-9-oxo-xanthen-3-yl)pyrrolidine-3-carboxylic acid], the IC50 [1] is reported as 1640 nM and the IC50 [2] is reported as 1610 nM.
In the case of `O=C(O)[C@H]1CCN(c2ccc3c(=O)c4cccc(Cl)c4oc3c2)C1` [Example 4, (3S)-1-(5-chloro-9-oxo-xanthen-3-yl)pyrrolidine-3-carboxylic acid], the IC50 [1] is reported as 1580 nM and the IC50 [2] is reported as 1930 nM.
